Experiment: mn = molality of the nth substance listed, in mol/kg
Conditions: 298.15 K, 101 kPa, Liquid, Pycnometric method

O=[N+]([O-])[O-].O=[N+]([O-])[O-].O=[N+]([O-])[O-].[Al+3] [aluminum trinitrate] + O
Conditions | mass density [kg/m3]
m1 = 0.5413 | 1081.6
m1 = 0.8667 | 1128.8
m1 = 1.007 | 1148.4
m1 = 1.507 | 1213.3
m1 = 2.012 | 1288.7
m1 = 2.793 | 1355.7

O=[N+]([O-])[O-].O=[N+]([O-])[O-].[Mn+2] [manganese nitrate] + O
Conditions | mass density [kg/m3]
m1 = 0.0287 | 1000.9
m1 = 0.1948 | 1023
m1 = 0.5661 | 1069.9
m1 = 1.373 | 1162.1
m1 = 2.006 | 1224
m1 = 3.484 | 1359

O=[N+]([O-])[O-].O=[N+]([O-])[O-].O=[N+]([O-])[O-].[Fe+3] [ferric nitrate] + O
Conditions | mass density [kg/m3]
m1 = 0.1102 | 1017.4
m1 = 0.4672 | 1079.1
m1 = 1.183 | 1194.2
m1 = 1.476 | 1235.5
m1 = 1.907 | 1293.8
m1 = 2.442 | 1363.6

— the NIST ThermoML archive (doi:10.1021/je5009894)
